In the RepoRT retention time repository (doi:10.1016/j.foodchem.2021.129757) one finds LC retention time data, which are given here for 2 compounds.

What all share (details): stereoisomer not certain
Data set [1] is described as follows: RP, Phenomenex Luna C18, 150 × 4.6 mm, 3 µm, 25 °C, 0.5 mL/min, estimated dead time 3.2 min; A: water + 0.1% formic acid, pH 3; B: acetonitrile + 0.1% formic acid, pH 3; gradient (min/%B) 0/0 30/30 35/40 50/80 52/80 60/0 65/0.
The nature of data set [2]: RP, Waters Atlantis T3, 100 × 2.1 mm, 3 µm, 40 °C, 0.3 mL/min, estimated dead time 0.73 min; A: water + 0.1% trifluoroacetic acid, pH 2; B: acetonitrile + 0.1% trifluoroacetic acid, pH 2; gradient (min/%B) 0/10 1/10 6/40 7/50 8/50 14/70 16/80 20/10 25/10.
Data set [3] in a line: RP, Waters ACQUITY UPLC BEH C18, 100 × 2.1 mm, 1.7 µm, 65 °C, 0.4 mL/min, estimated dead time 0.55 min; A: water + 0.1% formic acid, pH 3; B: 80% acetonitrile + 20% acetone + 0.1% formic acid, pH 3; gradient (min/%B) 0/0 5/100 5.5/0 6/0.
The nature of data set [4]: RP, Phenomenex Luna Omega Polar C18, 100 × 2.1 mm, 1.6 µm, 40 °C, 0.5 mL/min, estimated dead time 0.44 min; A: water + 0.5% formic acid; B: acetonitrile + 0.5% formic acid; gradient (min/%B) 0/5 3/50 3.1/100 5/100 5.1/5 7/5.
Data set [5] can be described thus: RP, Waters ACQUITY UPLC BEH Shield RP18, 150 × 2.1 mm, 1.7 µm, 40 °C, 0.4 mL/min, estimated dead time 0.83 min; A: water + 0.1% formic acid, pH 3; B: acetonitrile + 0.1% formic acid, pH 3; gradient (min/%B) 0/0 30/50 31/100 37/100 37.1/0.
Data set [6] can be described thus: RP, Agilent InfinityLab Poroshell 120 EC-C18, 100 × 3 mm, 2.7 µm, 25 °C, 0.4 mL/min, estimated dead time 1.1 min; A: water + 0.1% formic acid, pH 3; B: acetonitrile + 0.1% formic acid, pH 3; gradient (min/%B) 0/5 10/25 20/40 24/90 25/90 26/5 30/5.
Data set [7] in a line: RP, Agilent ZORBAX RRHD Eclipse Plus C18, 50 × 2.1 mm, 1.8 µm, 30 °C, 0.4 mL/min, estimated dead time 0.28 min; A: water + 0.1% formic acid, pH 3; B: acetonitrile + 0.1% formic acid, pH 3; gradient (min/%B) 0/1 5/10 8/25 9.1/99 10/99 12/99.
The nature of data set [8]: RP, Agilent ZORBAX Eclipse XDB-C18, 100 × 2.1 mm, 1.8 µm, 50 °C, 0.4 mL/min, estimated dead time 0.55 min; A: water + 0.1% formic acid, pH 3; B: methanol + 0.1% formic acid, pH 3; gradient (min/%B) 0/2 10/100 14.5/100 14.51/2 16.5/2.
Data set [9] can be described thus: Other, Phenomenex Kinetex PFP, 100 × 4.6 mm, 5 µm, 45 °C, 0.6 mL/min, estimated dead time 1.8 min; A: water + 0.1% trifluoroacetic acid, pH 2; B: methanol; gradient (min/%B) 0/40 20/72 21/40.
The nature of data set [10]: RP, Merck LiChrospher RP-18, 250 × 4 mm, 5 µm, 35 °C, 0.3 mL/min, estimated dead time 6.7 min; A: water + 0.5% formic acid; B: acetonitrile + 0.5% formic acid; gradient (min/%B) 0/5 10/5 30/15 45/20 65/20 95/54 110/63 115/5 135/5.
Data set [11] is described as follows: RP, Phenomenex Synergi Hydro-RP, 250 × 2 mm, 4 µm, 25 °C, 0.2 mL/min, estimated dead time 2.5 min; A: water + 0.1% formic acid, pH 3; B: acetonitrile + 0.1% formic acid, pH 3; gradient (min/%B) 0/0.5 7/0.5 12/12.5 25/16.3 47/35 48/65 50/65 50.1/0.5.
A short description of data set [12]: RP, 150 × 2.1 mm, 2.6 µm, 40 °C, 0.35 mL/min, estimated dead time 0.94 min; A: water + 0.1% formic acid, pH 3; B: acetonitrile + 0.1% formic acid, pH 3; gradient (min/%B) 0/0 1/5 7/45 8.5/80 10.5/80 11/5 12/5.
Data set [13] can be described thus: RP, Merck Supelco SUPELCOSIL LC-C18, 250 × 4.6 mm, 5 µm, 40 °C, 1 mL/min, estimated dead time 2.6 min; A: water + 0.1% trifluoroacetic acid, pH 2; B: acetonitrile + 0.1% trifluoroacetic acid, pH 2; gradient (min/%B) 0/5 45/35 47/75 49/35 50/5.
Data set [14] can be described thus: RP, 50 × 0.5 mm, 2.7 µm, 35 °C, 0.01 mL/min, estimated dead time 0.62 min; A: water + 0.1% formic acid, pH 3; B: acetonitrile + 0.1% formic acid, pH 3; gradient (min/%B) 0/5 12/95 14/95 16/5.
Data set [15] can be described thus: RP, Waters ACQUITY UPLC BEH Shield RP18, 100 × 2.1 mm, 1.7 µm, 30 °C, 0.6 mL/min, estimated dead time 0.37 min; A: water + 0.1% formic acid, pH 3; B: acetonitrile + 0.1% formic acid, pH 3; gradient (min/%B) 0/0 2/0 7/10 22/95 22.1/0 26/0.
Data set [16] is described as follows: RP, Phenomenex Synergi Hydro-RP, 150 × 2 mm, 4 µm, 30 °C, 0.5 mL/min, estimated dead time 0.6 min; A: water + 0.1% formic acid, pH 3; B: acetonitrile + 0.1% formic acid, pH 3; gradient (min/%B) 0/5 1/5 35/45 40/100 45/100.
Data set [17] can be described thus: RP, 100 × 0.5 mm, 2.7 µm, 45 °C, 0.015 mL/min, estimated dead time 0.83 min; A: water + 0.9% formic acid; B: acetonitrile + 0.9% formic acid; gradient (min/%B) 0/1 0.5/1 4/95 4.5/1 5/1.
Data set [18] in a line: RP, Phenomenex Luna Omega Polar C18, 100 × 2.1 mm, 1.6 µm, 40 °C, 0.5 mL/min, estimated dead time 0.44 min; A: water + 0.1% formic acid + 10 mM ammonium formate; B: acetonitrile; gradient (min/%B) 0/5 8/20 10/100 12/100 12.1/5 14/5.
Data set [19] is described as follows: Other, Phenomenex Kinetex PFP, 100 × 4.6 mm, 2.6 µm, 35 °C, 1.5 mL/min, estimated dead time 0.71 min; A: water + 0.1% trifluoroacetic acid, pH 2; B: acetonitrile + 0.1% trifluoroacetic acid, pH 2; gradient (min/%B) 0/1 7/7.5 14/7.6 17/10 18.5/12 20/12.5 24/30 25/90 25.1/1 32/1.
A short description of data set [20]: RP, Agilent ZORBAX RRHD Eclipse Plus C18, 50 × 2.1 mm, 1.8 µm, 30 °C, 0.4 mL/min, estimated dead time 0.28 min; A: water + 0.1% formic acid, pH 3; B: acetonitrile + 0.1% formic acid, pH 3; gradient (min/%B) 0/1 5/10 8/25 9.1/99 10/99 12/1.
Data set [21] in a line: RP, Waters ACQUITY UPLC HSS T3, 100 × 2.1 mm, 1.8 µm, 30 °C, 0.4 mL/min, estimated dead time 0.55 min; A: water + 0.1% formic acid, pH 3; B: acetonitrile + 0.1% formic acid, pH 3; gradient (min/%B) 0/0 2/0 15/100 22/100 22.1/0 26/0.
Data set [22] in a line: RP, 150 × 2.1 mm, 2.6 µm, 40 °C, 0.35 mL/min, estimated dead time 0.94 min; A: water + 0.1% formic acid, pH 3; B: acetonitrile + 0.1% formic acid, pH 3; gradient (min/%B) 0/0 1/0 12.5/100 14/100 14.2/0 15/0.
Data set [23] in a line: RP, Waters ACQUITY UPLC HSS T3, 100 × 2.1 mm, 50 °C; A: water + 0.1% formic acid, pH 3; B: 30% methanol + 70% acetonitrile + 0.1% formic acid, pH 3; gradient (min/%B) 0/5 1/8 2/15 3/40 4/70 4.5/100 5/100 6.4/100 6.6/5 6.8/5 7/5.

Take `COc1cc(/C=C/C(=O)O)ccc1O` [Ferulic acid]: the LC retention time in data set [1] was 23.8 min; in data set [2], 7.28 min; in [3], 2.17 min; in data set [4], 2.51 min; in data set [5] it was 11.2 min; in data set [6] it was 9.17 min. Besides, the LC retention time in data set [7] is 4.67 min; in data set [8], 4.64 min; in [9] it was 7.59 min; in data set [10], 61.3 min; in data set [11] it was 32.7 min; in [12] it was 5.86 min. Besides, the LC retention time in [13] is 21.7 min; in [14], 4.13 min; in data set [15] it was 12.5 min; in data set [16] it was 14.4 min; in data set [17], 2.44 min; in data set [18] it was 6.79 min. Also, the LC retention time in data set [19] was 20.7 min; in data set [20] it was 7.16 min; in [21] it was 9.48 min; in data set [22], 5.86 min.
With `O=C(O)C=Cc1ccc(O)cc1` [p-Coumaric acid], the LC retention time in data set [1] is 21.7 min; in data set [2], 6.73 min; in [3] it was 1.99 min; in data set [23] it was 3.45 min; in data set [4], 2.39 min; in [5] it was 10.8 min. In addition, the LC retention time in [6] was 8.4 min; in [7], 6.96 min; in [8], 4.32 min; in data set [9], 7.01 min; in [10], 56.2 min; in data set [11], 30.1 min. In addition, the LC retention time in data set [13] is 19 min; in data set [14], 3.84 min; in [15] it was 12.3 min; in data set [17] it was 2.3 min; in data set [18], 5.83 min; in data set [19], 17.6 min. For the same compound, the LC retention time in data set [20] is 6.97 min; in data set [21] it was 9.24 min.
